# From PMC7501995 (Cell metabolism, 2020)
# What was measured:
# [1] = tested on: C57BL/6J mice rendered diabetic by multiple low-dose STZ; assay: Multiple low-dose STZ-induced diabetes in C57BL/6J mice; assay type: in vivo, mouse; details: STZ mice
# human subjects with T1D = details: ref Ovalle et al., 2018; cited from earlier work
structure (smiles),measurement,setting,value
"OC[C@H]1O[C@@H](c2ccc(Cl)c(Cc3ccc(O[C@H]4CCOC4)cc3)c2)[C@H](O)[C@@H](O)[C@@H]1O [empagliflozin, reference compound]",glucose homeostasis,[1]; empagliflozin 10 mg/kg/day in drinking water,improved glucose homeostasis
COc1ccc(CCN(C)CCCC(C#N)(c2ccc(OC)c(OC)c2)C(C)C)cc1OC (stereo not drawn) [verapamil],effect in randomized controlled trial in human subjects with T1D,human subjects with T1D,beneficial effects
"CN(C)C(=N)N=C(N)N [metformin, reference compound]",glucose homeostasis,[1]; metformin 250 mg/kg/day in drinking water,improved glucose homeostasis
